Results from patent publication US20260256799A1, “INHIBITORS FOR TREATING SOLID TUMOURS” (UNIVERSITY OF SOUTHAMPTON, priority 2023, published 2026).

Experiments:
HFFF2 [1] = assay: IL-1-induced iCAF gene expression (Q-RT-PCR); type: cell-based, human; conditions: KU55933 + 10 ng/ml IL-1p 72 hours
Protocol: (§1) Human NSCLC cell line H441, HNSCC SCC25, murine cancer cell line TC-1 (lung), MC38 (colon) and human fetal foreskin fibroblasts HFFF2 were purchased from European Collection of Cell Cultures (Public Health England) or ATCC; HNSCC 5PT [32] were provided by l. Mackenzie (Queen Mary University of London, UK). HEK-293T cells and IMR90 lung fibroblasts were provided by Jesus Gil (Imperial College, London, UK). SCC25 were grown in Ham's F12:DMEM (1:1 ratio) medium with 10% FBS (Calbiochem) and 292 μg/ml L-Glutamine. 5PT were cultured in keratinocyte growth medium. HEK-293T, H441, MC38, HFFF2, IMR90 and primary fibroblasts were grown in DMEM supplemented with 10% FBS and 292 μg/ml L-Glutamine. Primary fibroblasts were isolated as previously used at early passage (p1-10). C57BL/6 murine normal lung and colon fibroblasts (MLF and MCF respectively) were grown at 3% oxygen. TC-1 were cultured in RPMI supplemented with 10% FBS and 292 μg/ml L-Glutamine. All cell cultures were routinely tested for mycoplasma contamination. All cells were cultured using standard cell culture plates/flasks (Corning). […]
For Quantitative Real-time PCR (Q-RT-PCR), RNA was extracted and retro-transcribed as described previously and Q-RT-PCR was performed as previously. The mRNA expression levels were analyzed using the AACt relative quantitation method. […]

HNSCC and NSCLC CAF = assay: Established myoCAF phenotype of CAF cultured ex vivo; type: cell-based, human
Protocol: (§2) Human NSCLC cell line H441, HNSCC SCC25, murine cancer cell line TC-1 (lung), MC38 (colon) and human fetal foreskin fibroblasts HFFF2 were purchased from European Collection of Cell Cultures (Public Health England) or ATCC; HNSCC 5PT [32] were provided by l. Mackenzie (Queen Mary University of London, UK). HEK-293T cells and IMR90 lung fibroblasts were provided by Jesus Gil (Imperial College, London, UK). SCC25 were grown in Ham's F12:DMEM (1:1 ratio) medium with 10% FBS (Calbiochem) and 292 μg/ml L-Glutamine. 5PT were cultured in keratinocyte growth medium. HEK-293T, H441, MC38, HFFF2, IMR90 and primary fibroblasts were grown in DMEM supplemented with 10% FBS and 292 μg/ml L-Glutamine. Primary fibroblasts were isolated as previously used at early passage (p1-10). C57BL/6 murine normal lung and colon fibroblasts (MLF and MCF respectively) were grown at 3% oxygen. TC-1 were cultured in RPMI supplemented with 10% FBS and 292 μg/ml L-Glutamine. All cell cultures were routinely tested for mycoplasma contamination. All cells were cultured using standard cell culture plates/flasks (Corning). HFFF2 or IMR90 cells were transfected with 25 μM On-Target pool siRNA (Thermo Scientific/Dharmacon) using Oligofectamine reagent (Life Technologies) as described. Stable knockdown was performed using retro/lentiviral mediated transduction of shRNA plasmids, as previously described followed by cell selection using 1 μg/ml puromycin for 5-7 days. NOX4-inducible HEK-293 cells (kindly provided by Vincent Jaquet) were treated with 1 μg/ml doxycycline. Wild type and mutant (C2991L) ATM over-expression was carried out transfecting HFFF2 with Viafect (Promega) according to manufacturer's instructions and selected for 10 days with 4 mg/ml G418. p-Retrosuper-shATM (ATM #1:912) and pCDNA3.1-Flag-mut-ATM (C2991L; pTP1625 clone) were kindly provided by Yosef Shiloh and Tanya Paull respectively. pLKO.1 murine shATM (TRCN0000012643) and pCDNA3.1-Flag-wt-ATM (31985) were purchased from Sigma and Addgene respectively. 2 ng/ml TGF-3 (TGF-β1; R&D Systems; for 3 days) was used to induce myofibroblast differentiation. 10 ng/ml IL-1pR (R&D Systems) for 72 hours was used to induce iCAF differentiation. […] All the inhibitors were resuspended in DMSO. To trigger DDR activation and/or cell stress HFFF2 were either irradiated with 2-100Gy using 350Kv X-Ray Irradiation System (Faxitron), or treated with 100 ng/ml Neocarzinostatin for 2 hours (NCS; Sigma), with 2-10 mM H2O2(Fisher Scientific) or with 5 μg/ml Cisplatin (Sandoz) for 30 minutes.
Cells were lysed in ice-cold RIPA buffer [1% NP40, 150 mM NaCl, 25 mM Tris-HCl pH 7.5, 0.1% SDS, 1% Na-Deoxycolate, 1 mM EGTA, 1 mM EDTA, 1 mM Na-orthovanadate, 10 mM Na-fluoride, 2.5 mM Na-pyrophosphate, 1 mM p glycerophosphate+freshly added 1 mM PMSF, 20 mM N-Ethylmaleimide (NEM), 10 ng/ml Microcystin-LR, 0.12 μM Okadaic acid and phosphatase and protease inhibitor cocktails; all from Sigma]. Protein extracts were then centrifuged and supernatants quantified using Dc-Bio-Rad protein assay kit (Bio-Rad laboratories) as previously. For nuclear-cytoplasmic protein extraction, the inventors used NE-PER Reagents according to manufacturer's instructions (Thermofisher). Equal amounts of protein were electrophoresed either in reducing (+Dithiothreitol, DTT) or in non-reducing conditions in 3-8% or 4-12% SDS-PAGE gels and electro blotted as previously.

HFFF2 fibroblasts = assay: TGF-β1-induced myofibroblast differentiation of fibroblasts (Western blotting, immunofluorescence, Q-RT-PCR, collagen gel contraction); type: cell-based, human
Protocol: as §2
5×10^3 HFFF2 were plated on permanox chamber slides (Thermo Scientific) and treated as described in the figure legends. Immunostaining was performed as previously. DAPI was used as nuclear counterstain and coverslips were mounted using fluorescent mounting solution (Dako). Images were taken using an Olympus IX81 fluorescence microscope and Xcellence program. DNA Damage foci were quantified from at least 8 non-overlapping FoV with ~300 cells in total per condition. Kruskall-Wallis statistical test was used to indicate the presence of a different distribution per time points in each group of foci. For collagen 1A1 deposition, 5×10^3 HFFF2 or MLF were seeded into chamber slides and treated with TGF-β1±inhibitors for a week (treated day 1 & day 4). Decellularisation was performed using 0.25M NH4OH in 50 mM Tris at 37° C. for 30 minutes and slides fixed with ice-cold 100% methanol at −20° C. followed by a blocking step. The remainderwas performed as previously described. SMA and Collagen 1A1 quantification was performed using Fiji. High resolution imaging of mouse tumours was carried out using an Axioscan.Z1 scanner (Zeiss).

H441, 5PT, SCC25 cells = assay: Transwell invasion assay towards fibroblast-conditioned media; type: cell-based, human
Protocol: CAF, HFFF2 or shCTR/shATM HFFF2 populations were treated with 13.3 μM KU55933+/−TGF-β1 for 7 days (treated day 1, day 4). Cells were washed twice with PBS and serum-free DMEM added for 72 hours. Fibroblast-conditioned medium (CM) was collected, centrifuged, filtered (0.2 μm), normalized according to cell number and used as a chemoattractant in the lower chamber of Transwell invasion assays as previously. Two-way Anova was used for statistical analysis.

[2] = monotherapy, dose escalation phase 1; cited from earlier work
HFFF2 [3] = assay: Senescence assay (SA-β-Gal); type: cell-based, human; conditions: continuous TGF-β1 administration, at 12 days
Protocol: (§3) HFFF2s were plated in 24-well plates (1×10^3 or 5×10^3 cells/well) and treated with TGF-β1 the following day (and then every 3 days). Senescence was quantified at day 5 and 12 from TGF-β1 treatment determining the percentage of SA-β-Gal-positive cells (Sigma) of the total number of cells counterstained with Dapi (Sigma) as previously described. At least 200 cells/well in at least three independent experiments were counted per sample using a CKX41 Olympus fluorescent microscope. Cells were less than 50% confluent at the end of the experiment to avoid SA-β-Gal-false positive cells due to cell contact. ROS assay was performed as previously.

ATM [4] = assay: ATM activation and dimerization in CAF nuclear extracts (Western blotting); type: cell-based, human; conditions: GKT137831 daily for 72 hours
Protocol: as §1, with “(p1-10).” for “(p1-10). C57BL/6 murine normal lung and colon fibroblasts (MLF and MCF respectively) were grown at 3% oxygen. TC-1 were cultured in RPMI supplemented with 10% FBS and 292 μg/ml L-Glutamine. All cell cultures were routinely tested for mycoplasma contamination. All cells were cultured using standard cell culture plates/flasks (Corning).”
(§4) Cells were lysed in ice-cold RIPA buffer [1% NP40, 150 mM NaCl, 25 mM Tris-HCl pH 7.5, 0.1% SDS, 1% Na-Deoxycolate, 1 mM EGTA, 1 mM EDTA, 1 mM Na-orthovanadate, 10 mM Na-fluoride, 2.5 mM Na-pyrophosphate, 1 mM p glycerophosphate+freshly added 1 mM PMSF, 20 mM N-Ethylmaleimide (NEM), 10 ng/ml Microcystin-LR, 0.12 μM Okadaic acid and phosphatase and protease inhibitor cocktails; all from Sigma]. Protein extracts were then centrifuged and supernatants quantified using Dc-Bio-Rad protein assay kit (Bio-Rad laboratories) as previously. […]

NOX4 = target: T1, NOX4 (Homo sapiens, UniProt Q9NPH5); conditions: cited from earlier work
T1 sequence (Q9NPH5 1-578): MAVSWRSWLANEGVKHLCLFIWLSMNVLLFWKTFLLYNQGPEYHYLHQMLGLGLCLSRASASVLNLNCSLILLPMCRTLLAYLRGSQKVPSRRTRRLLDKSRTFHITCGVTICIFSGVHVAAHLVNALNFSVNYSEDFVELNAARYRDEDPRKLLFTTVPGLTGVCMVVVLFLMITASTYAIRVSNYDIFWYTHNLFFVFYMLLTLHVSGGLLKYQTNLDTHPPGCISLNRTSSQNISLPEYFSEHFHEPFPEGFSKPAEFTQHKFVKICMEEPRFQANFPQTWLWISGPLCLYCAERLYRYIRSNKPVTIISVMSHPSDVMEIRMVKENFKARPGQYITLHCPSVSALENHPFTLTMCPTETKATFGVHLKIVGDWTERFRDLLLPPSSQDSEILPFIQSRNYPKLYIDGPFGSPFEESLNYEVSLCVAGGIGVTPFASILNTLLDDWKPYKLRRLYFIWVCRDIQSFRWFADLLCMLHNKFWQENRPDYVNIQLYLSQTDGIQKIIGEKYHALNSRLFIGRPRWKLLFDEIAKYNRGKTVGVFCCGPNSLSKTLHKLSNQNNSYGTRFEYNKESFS
T1 sequence (P13498 1-195 partner): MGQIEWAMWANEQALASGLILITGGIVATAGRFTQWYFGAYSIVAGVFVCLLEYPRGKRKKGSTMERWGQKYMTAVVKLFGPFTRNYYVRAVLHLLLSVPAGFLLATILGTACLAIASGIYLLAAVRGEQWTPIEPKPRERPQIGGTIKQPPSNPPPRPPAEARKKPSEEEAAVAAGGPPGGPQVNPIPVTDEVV

HFFF2 [5] = assay: ROS assay (DCFH-DA fluorescence); type: cell-based, human; conditions: GKT137831 40 μM, HFFF2 treated 48 hours with TGF-β1
Protocol: as §3

ATM [6] = assay: TGF-β1-dependent ATM activation in fibroblasts (Western blotting); type: cell-based, human
Protocol: as §1, with “(Corning). HFFF2 or IMR90 cells were transfected with 25 μM On-Target pool siRNA (Thermo Scientific/Dharmacon) using Oligofectamine reagent (Life Technologies) as described. Stable knockdown was performed using retro/lentiviral mediated transduction of shRNA plasmids, as previously described followed by cell selection using 1 μg/ml puromycin for 5-7 days. NOX4-inducible HEK-293 cells (kindly provided by Vincent Jaquet) were treated with 1 μg/ml doxycycline.” for “(Corning).”
as §4

[7] = CCT241533 1.5 μM + TGF-β1 72 hours, HFFF2
[8] = CCT241533 1.5 μM + TGF-β1, HFFF2
[9] = GKT137831 40 μM, HFFF2, TGF-β1 24 hours

O=c1cc(-c2cccc3c2Sc2ccccc2S3)oc(N2CCOCC2)c1 [KU55933]
IL-1p induction of most iCAF genes (CCL2, LIF, IL6, CXCL1) (HFFF2 [1]): significantly upregulated | CAF phenotype (HNSCC and NSCLC CAF; KU55933 for 7 days): reverted CAF to a more quiescent phenotype | expression of myofibroblast markers (SMA, collagen I, fibronectin) (HNSCC and NSCLC CAF; KU55933 for 7 days): downregulating | contractility (HNSCC and NSCLC CAF; collagen gel contraction, ATM inhibition by KU55933 or shRNA-knockdown): suppressing | expression of SMA (HFFF2 fibroblasts; KU55933 13.3 μM + TGF-β1 72 hours, HFFF2 and primary colon, skin, oral fibroblasts): inhibiting | SMA-positive stress fiber formation (HFFF2 fibroblasts; KU55933 13.3 μM + TGF-β1, 3 days, HFFF2): inhibiting | collagen1 deposition (HFFF2 fibroblasts; KU55933 13.3 μM + TGF-β1, 7 days, HFFF2, MLF one week): inhibiting | contraction of collagen gels (HFFF2 fibroblasts; KU55933 13.3 μM + TGF-β1, HFFF2 or normal primary oral fibroblasts): inhibiting | myofibroblast differentiation (HFFF2 fibroblasts; KU55933 13.3 μM co-treated with TGF-β1): suppressed differentiation | TGF-β1 induction of myoCAF genes (COL11A1, ASPN, ELN) (HFFF2 fibroblasts; KU55933 + TGF-β1 72 hours, HFFF2, Q-RT-PCR): suppressed | invasion-promoting effects of myofibroblasts generated through TGF-β1 treatment (H441, 5PT, SCC25 cells; 5PT or SCC25 cells towards conditioned media of HFFF2 treated with TGF-β1 +/− KU55933 7 days): suppressed | myoCAF-dependent cancer cell invasion (H441, 5PT, SCC25 cells; H441 or 5PT cells towards conditioned media of NSCLC / HNSCC CAF treated with KU55933 13.3 μM 7 days): inhibiting

CC(C)n1c(=O)n(C)c2cnc3cc(F)c(-c4ccc(OCCCN5CCCCC5)nc4)cc3c21 [AZD1390]
adverse effects [2]: not yet reporting to be associated with adverse effects

COc1cc2nc(-c3cc(F)ccc3O)nc(N[C@@H]3CNC[C@H]3C(C)(C)O)c2cc1OC [CCT241533]
TGF-β1-dependent FnEDA expression (HFFF2 fibroblasts; [7]): suppresses | TGF-β1-dependent SMA expression (HFFF2 fibroblasts; [7]): suppresses | SMA-positive stress fiber formation (HFFF2 fibroblasts; [8]): suppresses | collagen deposition (HFFF2 fibroblasts; [8]): suppresses

TGF-β1: cytokine (R&D Systems) used to induce myofibroblast differentiation
% range SA-β-Gal-positive cells (HFFF2 [3]): 15.8-23.3%

CN(C)c1cccc(-c2c3c(=O)n(-c4ccccc4Cl)[nH]c3cc(=O)n2C)c1 [GKT137831]
ATM dimerization (ATM [4]; non-reducing conditions): inhibited | ATM activation (ATM [4]; two HNSCC CAF and one NSCLC CAF): inhibited | myoCAF differentiation (NOX4): suppresses | myoCAF-mediated immunotherapy resistance (NOX4): overcomes | ROS production (HFFF2 [5]): suppressed | ATM downstream kinase activity (ATM [6]; [9]): inhibited | ATM phosphorylation (ATM [6]; [9]): inhibited | DNA damage monitored by pH2AX protein expression (ATM [6]; GKT137831, HFFF2, TGF-β1 48 hours): decreased
